Results reported in patent US12702715B2, “Targeted RNA degradation allows precision repurposing of protein-targeted small molecule medicines to RNA” (University of Florida Research Foundation, Incorporated, priority 2020, dated 2026).
“Also recorded” adds a separate entry of the source.

What was measured:
PTEN = PTEN luciferase assay; assay type: cell-based, human; details: MDA-MB-231
Method: PTEN Luciferase Assay. To study de-repression of PTEN, a luciferase-based cellular assay was performed as previously described^6. Briefly, MDA-MB-231 cells (~60% confluency) in 48-well plates were co-transfected with plasmids encoding Renilla luciferase (for normalization) and firefly luciferase fused to the 3′ UTR of PTEN by using Lipofectamine 2000 according to the manufacturer's protocol. After 5 h, the cells were treated with the compounds diluted in growth medium. Luciferase assay were then completed as previously described^4, 9.

[1] = tested on: RTK / phosphorylation of ERK (pERK); assay: Western blot of ERK phosphorylation (functional RTK inhibition) in MDA-MB-231 cells; assay type: cell-based, human; details: for IC50: Homo sapiens, MDA-MB-231; for dose inhibiting ERK phosphorylation to the similar extent: Western blot quantification
Method: Western Blotting. MDA-MB-231 cells were plated in 6-well plates. […] The cells were harvested by trypsinization, and total protein was extracted with MPER (Mammalian Protein Extraction Reagent, Thermo Scientific) as previously described^6. Protein concentrations were determined by using a Pierce Micro BCA Protein Assay kit (Fisher Scientific). […] ImageJ software was used for quantification of the protein bands. […] In each case, the secondary antibody was diluted two times more than the primary antibody.

MDA-MB-231-Luc cells = assay type: in vivo, mouse; details: for pre-miR-21 levels in lung tissue: FISH; for pre-miR-21 levels in lung tissue / ERK levels in lung tissue / PDCD4 expression in lung tissue: 1 assessed after 12 days of dosing; for ERK levels in lung tissue / PDCD4 expression in lung tissue: IHC
Description: In Vivo Studies to Assess Metastasis of Breast Cancer to the Lung. Female NOD/SCID mice (n=10; 5-7 weeks) were used for in vivo breast cancer metastasis studies as previously reported^6. Briefly, mice purchased from Jackson Laboratory were intravenously injected (tail vein) with MDA-MB-231-Luc cells (0.8×10^6 cells/mice). Luciferase activity was monitored every other day to determine when to initiate treatment [averaged luciferase signal from mice is ten times higher than the background as measured by LagoX (Spectral Instruments)]. After 5 days, the mice were split into three groups, with each group having the same luciferase signal. […]. After 30 days, lungs were harvested and immediately fixed in Bouin's solution (Sigma, HT10132-1L) for 24 h to image nodules. After counting the nodules, the fixed lungs were washed in 60 mL of 10% formalin solution four times over 48 h to remove Bouin's solution. Paraffin-embedded sections of the lungs were then generated by the Histology Core at Scripps Research Florida for further staining.
Lung Tissue Histology. All histological analyses were performed as previously reported^6. The slides were stained on a Leica BondMax Immunostaining platform by using a DAB refine kit. H&E staining and PDCD4, pERK and ERK IHC were performed by the Histology Core at Scripps Research Florida. All antibodies were used at a 1:100 dilution: anti-PDCD4 (Abcam, ab51495); anti-pERK (Cell Signaling Technology, 4370S); and ERK (Cell Signaling Technology, 9102S). The primary antibodies were detected using a DAB Substrate Kit (Vector Laboratories, Inc.) per the manufacturer's protocol.
To visualize miR-21 and pre-miR-21 by fluorescence in situ hybridization (FISH), the paraffin-embedded sections were incubated at 56° C. overnight and cleaned with xylene three times, followed by washing with serially diluted concentrations of ethanol (100%, 95%, 90%, and 85%). The slides were then washed with MilliQ water three times and immersed in 0.3% (v/v) H2O2 for 30 min at room temperature. The slides were then washed with MilliQ water three times and digested with proteinase K (QIAGEN) at 37° C. for 15 min. After washing three times with MilliQ water, the slides were dehydrated with 95% ethanol and air-dried completely at room temperature. The slides were then hybridized with FITC-labeled LNA probes^6 complementary to mature ([…]*/36-FAM SEQ ID NO: 16) or pre-miR-21 ([…]/36-FAM SEQ ID NO: 17) at […] overnight. After hybridization, the slides were washed with 2×SSC (saline sodium citrate buffer) three times and then 1×DPBS three times, all at room temperature. The slides were then incubated with an anti-FITC horseradish peroxidase-conjugated antibody (Abcam) for 2 h at room temperature. The slides were washed with 1×TBST three times.
After staining of interest was completed, the slides were dehydrated, cover-slipped with Cytoseal 60, and imaged with a Leica DM13000 B upright fluorescent microscope.

[2] = tested on: proteome of MDA-MB-231 cells; assay: Global proteomics profiling by LC-MS/MS; assay type: cell-based, human; details: for number of proteins significantly affected / abundance of miR-21 regulated proteins: 1 and 2 at 1 μM; for number of proteins significantly affected: LNA-21 0.1 μM, 48 h, 3000 proteins detected; for abundance of miR-21 regulated proteins: LNA-21 100 nM; for proteins associated with miR-let-7: control
Method: Global Proteomics Profiling by Using LC-MS/MS. MDA-MB-231 cells (~60% confluency) were treated with 1 (1 μM), 2 (1 μM), LNA-21 (0.1 μM), or vehicle for 48 h. After washing with 1×DPBS, the cells were harvested by scraping and resuspended in 1×DPBS. They were lysed by sonication and centrifuged at 14,000×g for 15 min. Protein concentrations were determined by a Bradford assay (Bio-Rad). Protein samples (340 μg) were denatured with 6 M urea in 50 mM NH4HCO3, pH 8, reduced with 10 mM TCEP (tris(2-carboxyethyl)phosphine hydrochloride) for 30 min, and alkylated with 25 mM iodoacetamide for 30 min in the dark. The samples were diluted to a final concentration of 2 M urea with 50 mM NH4HCO3, pH 8, and CaCl2) was added to a final concentration of 1 mM. The protein mixture was digested with tiypsin (1.5 μL of 0.5 μg/μL) overnight at 37° C. The digested protein samples were acidified with acetic acid and desalted over a self-packed C18 spin column. After lyophilization, the samples were analyzed by LC-MS/MS as described below.
LC-MS/MS Analysis and MaxQuant Analysis. The lyophilized protein obtained above was resuspended in 0.1% formic acid in water and analyzed by using an EASY-nLC 1200 nano-UHPLC coupled to Q Exactive HF-X Quadrupole-Orbitrap mass spectrometer (Thermo Scientific) as previously reported^6. Obtained spectra were then analyzed with MaxQuant (V1.6.1.0). Spectra were searched against the human proteome (Uniprot) and common contaminants. The search tolerance was set to 20 ppm for the first peptide search and 10 ppm for the main peptide search. The false discovery rate (FDR) for proteins, peptides and sites identification was set at 5%. All the parameters were set as previously reported^6.
Principal Component Analysis. Principal component analysis (PCA) was completed on the proteomics data that included 2,315 proteins that were detected in all samples after the technical replications were averaged, to visualize overall differences across the samples. R build in package prcomp^10 was used to perform the analysis, where scale was set to TRUE.

SMILES | PTEN expression (luciferase-based assay) (PTEN) | IC50 [1] [µM] | dose inhibiting ERK phosphorylation to the similar extent [1] [µM] | pre-miR-21 levels in lung tissue (MDA-MB-231-Luc cells) | ERK levels in lung tissue (MDA-MB-231-Luc cells) | PDCD4 expression in lung tissue (MDA-MB-231-Luc cells) | number of affected proteins associated with ERK pathways ([2]; 1 μM) | number of proteins significantly affected [2] | abundance of miR-21 regulated proteins [2] | proteins associated with miR-let-7 [2] | fold decrease of RTK inhibition relative to 1 [1] [fold] | shift of selectivity toward miR-21 over RTK ([1]; 25-fold (miR-21) × 100-fold (RTK), relative to 1) | inhibition of ERK phosphorylation compared to 1 ([1]; Western blot) | weight change of NOD/Scid mice (MDA-MB-231-Luc cells; 56 mg/kg q.o.d., over 38 days) | hematoxylin and eosin (HE) staining of lung (MDA-MB-231-Luc cells; mouse, in vivo) | PCA similarity of proteome [2]
CN1CCN(c2ccc3nc(-c4c(N)c5c(F)cccc5[nH]c4=O)[nH]c3c2)CC1 [Compound 1, Dovitinib, reference compound] | derepressed | 0.1 | 0.05 | did not affect | did not affect | did not affect | 14 | 46 | had no effect; also recorded: no significant changes | Neither treatment with 1 nor 2 affected | – | – | – | – | – | –
CCOC(=O)C1=C(Nc2ccccc2)S/C(=C\c2ccc(OCCOCCOCCOCCNC(=O)NCCN3CCN(c4ccc5[nH]c(-c6c(N)c7c(F)cccc7[nH]c6=O)nc5c4)CC3)c(O)c2)C1=O [Compound 2, Ribotac-Dovitinib] | derepressed | 10 | 5 | significantly diminished | had no effect | derepressed | – | 28 | globally upregulated; also recorded: significant increase in abundance | Neither treatment with 1 nor 2 affected | 100 | 2,500 fold | reduced ability to inhibit ERK phosphorylation compared to 1 | did not cause significant changes in weight | decrease | more similar to treatment with LNA-21 than 1
